Experiments:
Format in all cases: cell-based
P. aeruginosa PAO1 [1] = assay: Antibacterial activity in combination with minocycline (growth inhibition); conditions: Pseudomonas aeruginosa, PAO1, compound at 50 μM; minocycline 8 μg/mL; OD625 23 h minus 1 h; read-out: residual growth of P. aeruginosa PAO1 (% of uninhibited control) with minocycline
Summary of the method: (§1)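 Test compound combined with fixed subinhibitory partner antibiotic: linezolid 128 μg/mL for either strain, minocycline 0.25 μg/mL (E. coli) or 8 μg/mL (P. aeruginosa), in caMHB shaken at 37 °C. Residual growth as % of inhibitor-free control, from OD625 at 23 h minus 1 h.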

E. coli ATCC25922 [2] = assay: Antibacterial activity in combination with linezolid (growth inhibition); conditions: Escherichia coli, ATCC25922, compound at 50 μM; linezolid 128 μg/mL; OD625 23 h minus 1 h; read-out: residual growth of E. coli ATCC25922 (% of uninhibited control) with linezolid
Experimental: (§2) Antibacterial activity in combination with minocycline or with linezolid
(§3) Inhibition of growth was measured with E. coli ATCC25922 and P. aeruginosa PAO1 in a 96-well plate format. Cation-adjusted Müller-Hinton broth (caMHB) was inoculated with an overnight culture and incubated at 37° C. on a shaker until OD625 reached 0.6 to 0.7. Density was adjusted to OD600=0.5 by addition of caMHB. 35 μL of the suspension were diluted to 35 mL with caMHB and supplemented with minocycline at the subinhibitory doses of 0.25 μg/mL for E. coli and 8 μg/mL for P. aeruginosa or with linezolid at the subinhibitory dose of 128 μg/mL for E. coli and P. aeruginosa. Each well contained 1 μL of test compound in 100 μL caMHB with minocycline or with linezolid.
(§4) Plates were incubated at 37° C. on a plate shaker. OD625 was measured at 1 h, 6 h, and at 23 h.
(§5) The difference between OD at 23 h and at 1 h was taken as measure for cell density and compared to controls without inhibitor (i.e. uninhibited control). Results were expressed as residual growth (% of uninhibited control). Enhancement of minocycline or linezolid activity caused reduced residual growth.

E. coli ATCC25922 [3] = assay: Antibacterial activity in combination with minocycline (growth inhibition); conditions: Escherichia coli, ATCC25922, compound at 25 μM; minocycline 0.25 μg/mL; OD625 23 h minus 1 h; read-out: residual growth of E. coli ATCC25922 (% of uninhibited control) with minocycline
Summary of the method: as §1

P. aeruginosa PAO1 [4] = assay: Antibacterial activity in combination with linezolid (growth inhibition); conditions: Pseudomonas aeruginosa, PAO1, compound at 50 μM; linezolid 128 μg/mL; OD625 23 h minus 1 h; read-out: residual growth of P. aeruginosa PAO1 (% of uninhibited control) with linezolid
Experimental: as §2, §3, §4, §5

Structure (SMILES)	activity at 50 µM (P. aeruginosa PAO1 [1])	activity at 50 µM (E. coli ATCC25922 [2])	activity at 25 µM (E. coli ATCC25922 [3])	activity at 50 µM (P. aeruginosa PAO1 [4])
Clc1ccccc1COc1ccc(CNCC2CCNCC2)cc1 [Example 1]	≤ 50%	≤ 50%	–	–
Clc1ccc(COc2ccc(CNCC3CNC3)cc2)c(Br)c1 [Example 36]	–	–	≤ 10%	≤ 50%
Clc1ccc(COc2ccc(CNCC3CCNC3)cc2)c(Br)c1 (stereo not shown) [Example 63]	–	–	≤ 10%	≤ 50%
Clc1ccc(COc2ccc(CCNCC3CNC3)cc2)c(Br)c1 [Example 100]	–	≤ 50%	≤ 10%	–
Clc1ccc(COc2cc(CNCC3CNC3)cc(OCC3CC3)c2)c(Cl)c1 [Example 166]	–	–	≤ 10%	≤ 50%
CC(C)Oc1cc(C[N+](C)(C)CC2CCNC2)cc(OCc2ccc(Cl)cc2Br)c1 (stereo not shown) [Example 167]	–	–	≤ 10%	≤ 50%
NCC1CCC(CNCc2cccc(OCc3ccc(Cl)cc3Br)c2)N1 (stereo not shown) [Example 192]	≤ 50%	–	≤ 10%	≤ 50%
Clc1ccc(COc2cc(CNCC3CCNC3)cc(OCCc3c[nH]cn3)c2)c(Br)c1 (stereo not shown) [Example 251]	–	–	≤ 10%	≤ 50%
CC(C)(C)c1ccc(COc2cc(CNCC3CNC3)cc(C(F)(F)F)c2)cc1 [Example 273]	–	–	≤ 10%	≤ 50%
C=CCOc1cc(/C=C/c2cccc(C#N)c2)cc(CNCC2CCNC2)c1 (stereo not shown) [Example 305]	–	–	≤ 10%	≤ 50%
CC(C)COc1cc(/C=C/c2cccnc2)cc(CNCC2CCNC2)c1 (stereo not shown) [Example 332]	≤ 50%	–	≤ 10%	≤ 50%
CC(C)COc1cc(/C=C/c2ccc(C(N)=O)cc2)cc(CNCC2CCNC2)c1 (stereo not shown) [Example 337]	–	–	≤ 10%	≤ 50%
C[N+](C)(Cc1cc(OCCc2c[nH]cn2)cc(OCc2ccc(Cl)cc2Br)c1)CC1CNC1 [Example 389]	–	–	≤ 10%	≤ 50%
C[N+](C)(Cc1cc(OCCc2c[nH]cn2)cc(OCc2ccc(Cl)cc2Br)c1)CC1CCNC1 (stereo not shown) [Example 404]	–	–	≤ 10%	≤ 50%
CC(C)COc1ccc(/C=C/c2ccc(Cl)cc2Br)cc1CNCC1CNC1 [Example 432]	–	–	≤ 10%	≤ 50%
C=CCOc1cc(/C=C/c2ccc(Cl)cc2Br)cc(C(=O)NCCN(CC2CNC2)CC2CNC2)c1 [Example 447]	–	≤ 50%	≤ 10%	–
C=CCOc1cc(/C=C/c2ccc(Cl)cc2Br)cc(C(=O)NCCNC(=O)C2CNC2)c1 [Example 454]	–	–	≤ 10%	≤ 50%
C=CCOc1cc(/C=C/c2cncc(C(=O)N(C)C)c2)cc(CNCC2CCNC2)c1 (stereo not shown) [Example 467]	≤ 50%	–	–	≤ 50%
Oc1ncc(/C=C/c2ccc(Cl)cc2Br)cc1CNCC1CCNC1 (stereo not shown) [Example 494, 5-[(E)-2-(2-bromo-4-chloro-phenyl)vinyl]-3-[(pyrrolidin-3-ylmethylamino)methyl]pyridin-2-ol]	–	–	≤ 10%	≤ 50%
CC(C)COc1cc(CNCC2CCNC2)cc(S(=O)(=O)Cc2cccnc2)c1 (stereo not shown) [Example 495]	–	≤ 50%	–	–
CC(C)COc1cc(/C=C/c2cccnc2)cc(C(=O)CNCC2CCNC2)c1 (stereo not shown) [Example 502, 1-[3-isobutoxy-5-[(E)-2-(3-pyridyl)vinyl]phenyl]-2-(pyrrolidin-3-ylmethylamino)ethanone]	≤ 50%	≤ 50%	–	–
O=C(NCCN(CC1CNC1)CC1CNC1)c1cc(OCCc2ccncc2)cc(OCc2cccnc2)c1 [Example 506, N-[2-[bis(azetidin-3-ylmethyl)amino]ethyl]-3-[2-(4-pyridyl)ethoxy]-5-(3-pyridylmethoxy)benzamide]	–	≤ 50%	–	–
O=C(NCCN(CC1CNC1)CC1CNC1)c1cc(CNC(=O)c2cccnc2)cc(OCCc2ccncc2)c1 [Example 507, N-[[3-[2-[bis(azetidin-3-ylmethyl)amino]ethylcarbamoyl]-5-[2-(4-pyridyl)ethoxyl]phenyl]methyl]pyridine-3-carboxamide]	≤ 50%	≤ 50%	–	–
